Experimental data from ChEMBL document CHEMBL1201862, “PubChem BioAssay data set” (2004).
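Cells were grown in 96-well plates and exposed to each compound for 48 hours at five concentrations; endpoints were interpolated linearly between bracketing concentrations, or set to the highest concentration if not reached. GI50 is the concentration that inhibits growth by half.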 Activity calls are given as the source filed them. Cut-off read from the data, not from the text of the source: active = GI50 up to about 1.1 µM and inactive = higher.

What was measured:
Assay in all cases: NCI anticancer screen, dose series, 48 h
ACHN = test system: ACHN
DU-145 = test system: DU-145
HOP-92 = test system: HOP-92
HT-29 = test system: HT-29
LOX IMVI = test system: LOX IMVI
M14 = test system: M14
MCF7 = test system: MCF7
MOLT-4 = test system: MOLT-4
NCI-H522 = test system: NCI-H522
OVCAR-3 = test system: OVCAR-3
OVCAR-4 = test system: OVCAR-4
OVCAR-8 = test system: OVCAR-8
RPMI-8226 = test system: RPMI-8226
SK-MEL-2 = test system: SK-MEL-2
SK-OV-3 = test system: SK-OV-3
SN12C = test system: SN12C
SNB-75 = test system: SNB-75
SW-620 = test system: SW-620
U-251 = test system: U-251
UACC-62 = test system: UACC-62

Compound	GI50 (ACHN)	GI50 (DU-145)	GI50 (HOP-92)	GI50 (HT-29)	GI50 (LOX IMVI)	GI50 (M14)	GI50 (MCF7)	GI50 (MOLT-4)	GI50 (NCI-H522)	GI50 (OVCAR-3)	GI50 (OVCAR-4)	GI50 (OVCAR-8)	GI50 (RPMI-8226)	GI50 (SK-MEL-2)	GI50 (SK-OV-3)	GI50 (SN12C)	GI50 (SNB-75)	GI50 (SW-620)	GI50 (U-251)	GI50 (UACC-62)
CC(=O)Nc1ccc2c3c(cc(O)c2c1)N(C(=O)CCCC(=O)Nc1ccc2c4c(cc(O)c2c1)N(C(=O)OC(C)(C)C)CC4CCl)CC3CCl (stereo not given)	5.22 µM (inactive)	0.769 µM (active)	2.01 µM (inactive)	1.19 µM (inactive)	0.904 µM (active)	3.22 µM (inactive)	0.225 µM (active)	0.0815 µM (active)	0.371 µM (active)	1.1 µM (active)	1.44 µM (inactive)	1.94 µM (inactive)	5.69 µM (inactive)	0.955 µM (active)	1.62 µM (inactive)	1.57 µM (inactive)	1.99 µM (inactive)	1.82 µM (inactive)	0.841 µM (active)	0.998 µM (active)
O=[N+]([O-])c1ccc2c(/N=N/c3c(O)ccc4ccccc34)c(O)cc(S(=O)(=O)O)c2c1	4.86 µM (inactive)	36.1 µM (inactive)	16.6 µM (inactive)	25.4 µM (inactive)	17.4 µM (inactive)	4.07 µM (inactive)	49.9 µM (inactive)	1.39 µM (inactive)	4.76 µM (inactive)	1.69 µM (inactive)	35.2 µM (inactive)	5.28 µM (inactive)	8.26 µM (inactive)	14.2 µM (inactive)	36.4 µM (inactive)	25.6 µM (inactive)	21.9 µM (inactive)	13.8 µM (inactive)	3.45 µM (inactive)	2.51 µM (inactive)
CCOc1ccccc1/N=N/C1C(=O)N(C(=O)CC(=O)Nc2ccccc2C)N=C1C (stereo not given)	> 100 µM (inactive)	79.3 µM (inactive)	17.1 µM (inactive)	> 100 µM (inactive)	> 100 µM (inactive)	> 100 µM (inactive)	> 100 µM (inactive)	> 100 µM (inactive)	61.2 µM (inactive)	87.9 µM (inactive)	> 100 µM (inactive)	39 µM (inactive)	43.9 µM (inactive)	38.4 µM (inactive)	19.7 µM (inactive)	> 100 µM (inactive)	24.2 µM (inactive)	> 100 µM (inactive)	19.4 µM (inactive)	21.3 µM (inactive)
CCC1(O)CC(OC2CC(N(C)C)C(OC3CC(O)C(OC4CCC(=O)C(C)O4)C(C)O3)C(C)O2)c2c(O)c3c(c(O)c2C1C(=O)OC)C(=O)c1cccc(O)c1C3=O (stereo not given)	0.00134 µM (active)	0.00689 µM (active)	0.0344 µM (active)	0.00445 µM (active)	0.00184 µM (active)	0.01 µM (active)	0.01 µM (active)	0.00154 µM (active)	0.00385 µM (active)	0.0155 µM (active)	0.01 µM (active)	0.00174 µM (active)	0.00181 µM (active)	0.0103 µM (active)	0.00565 µM (active)	0.00966 µM (active)	0.00881 µM (active)	0.00171 µM (active)	0.0028 µM (active)	0.0101 µM (active)
CC1(C)OCC(C2CCC3(C)C4=CCC5C(C)(C)C(O)CCC5(C)C4CCC23C)CC(O)C1O (stereo not given)	20.2 µM (inactive)	14.7 µM (inactive)	16.2 µM (inactive)	18.2 µM (inactive)	17.1 µM (inactive)	16.9 µM (inactive)	20.7 µM (inactive)	14.4 µM (inactive)	20 µM (inactive)	14.6 µM (inactive)	14.1 µM (inactive)	17.5 µM (inactive)	6.75 µM (inactive)	16.3 µM (inactive)	18.3 µM (inactive)	18.7 µM (inactive)	15.1 µM (inactive)	17.8 µM (inactive)	15.4 µM (inactive)	14.5 µM (inactive)
O=C1NC(N2CCCC(CO)C2)=N/C1=C\c1ccc(Cl)cc1 (stereo not given)	> 100 µM (inactive)	> 100 µM (inactive)	90.8 µM (inactive)	> 100 µM (inactive)	87.5 µM (inactive)	> 100 µM (inactive)	> 100 µM (inactive)	> 100 µM (inactive)	> 100 µM (inactive)	> 100 µM (inactive)	> 100 µM (inactive)	> 100 µM (inactive)	> 100 µM (inactive)	> 100 µM (inactive)	> 100 µM (inactive)	> 100 µM (inactive)	51.1 µM (inactive)	> 100 µM (inactive)	> 100 µM (inactive)	> 100 µM (inactive)
CCOP(=O)(OCC)C1=C(c2ccccc2)OC(N)=C(C#N)C1c1ccc(Cl)cc1 (stereo not given)	> 100 µM (inactive)	> 100 µM (inactive)	> 100 µM (inactive)	> 100 µM (inactive)	> 100 µM (inactive)	> 100 µM (inactive)	> 100 µM (inactive)	> 100 µM (inactive)	67.9 µM (inactive)	> 100 µM (inactive)	> 100 µM (inactive)	> 100 µM (inactive)	> 100 µM (inactive)	> 100 µM (inactive)	> 100 µM (inactive)	> 100 µM (inactive)	> 100 µM (inactive)	> 100 µM (inactive)	> 100 µM (inactive)	> 100 µM (inactive)
CCOC(=O)/C=C(/OCC)[C@@H]1C(C(=O)c2ccc(Cl)cc2)[C@@H]1/C(=C\C(=O)OCC)OCC (stereo not given in full)	13.2 µM (inactive)	47.1 µM (inactive)	2.47 µM (inactive)	7.53 µM (inactive)	24.3 µM (inactive)	14.5 µM (inactive)	11.2 µM (inactive)	3.98 µM (inactive)	3.62 µM (inactive)	7.57 µM (inactive)	67.3 µM (inactive)	6.56 µM (inactive)	2.79 µM (inactive)	56.4 µM (inactive)	27.2 µM (inactive)	17.7 µM (inactive)	7.5 µM (inactive)	12.6 µM (inactive)	4.99 µM (inactive)	28.8 µM (inactive)
Cc1ccc(C(=O)Nc2ccc(CP(=O)(O)O)cc2CP(=O)(O)O)cc1N	> 100 µM (inactive)	> 100 µM (inactive)	> 100 µM (inactive)	> 100 µM (inactive)	> 100 µM (inactive)	> 100 µM (inactive)	> 100 µM (inactive)	> 100 µM (inactive)	> 100 µM (inactive)	> 100 µM (inactive)	> 100 µM (inactive)	> 100 µM (inactive)	> 100 µM (inactive)	> 100 µM (inactive)	> 100 µM (inactive)	> 100 µM (inactive)	> 100 µM (inactive)	> 100 µM (inactive)	> 100 µM (inactive)	> 100 µM (inactive)
CCOC(=O)/C=C(\C(=O)OCC)n1cc(Cl)c(=O)n(CC(=O)OCC)c1=O	1.63 µM (inactive)	17 µM (inactive)	1.85 µM (inactive)	16.5 µM (inactive)	4.99 µM (inactive)	3.4 µM (inactive)	2.62 µM (inactive)	1.91 µM (inactive)	0.78 µM (active)	2.82 µM (inactive)	15.2 µM (inactive)	2.19 µM (inactive)	1.74 µM (inactive)	16.2 µM (inactive)	19.5 µM (inactive)	14.5 µM (inactive)	18.7 µM (inactive)	1.91 µM (inactive)	15.6 µM (inactive)	10.9 µM (inactive)
c1ccc(C[n+]2cccc(-c3cc4ccccc4[nH]3)c2)cc1	> 100 µM (inactive)	47.4 µM (inactive)	16.4 µM (inactive)	32.5 µM (inactive)	19.1 µM (inactive)	21.7 µM (inactive)	27.6 µM (inactive)	21.5 µM (inactive)	16.4 µM (inactive)	31 µM (inactive)	40.2 µM (inactive)	38.3 µM (inactive)	17.6 µM (inactive)	16.6 µM (inactive)	> 100 µM (inactive)	15.4 µM (inactive)	29.4 µM (inactive)	72.6 µM (inactive)	34.5 µM (inactive)	15.7 µM (inactive)
COc1ccc(C(C)NNC(=O)c2cc[n+]([BH2-]C#N)cc2)cc1OC (stereo not given)	> 100 µM (inactive)	> 100 µM (inactive)	> 100 µM (inactive)	> 100 µM (inactive)	> 100 µM (inactive)	> 100 µM (inactive)	> 100 µM (inactive)	> 100 µM (inactive)	> 100 µM (inactive)	> 100 µM (inactive)	> 100 µM (inactive)	> 100 µM (inactive)	> 100 µM (inactive)	> 100 µM (inactive)	54.3 µM (inactive)	> 100 µM (inactive)	> 100 µM (inactive)	> 100 µM (inactive)	> 100 µM (inactive)	> 100 µM (inactive)
Nc1cc2[nH]cnc2c(=O)[nH]1 [DEZAGUANINE]	8.87 µM (inactive)	5.43 µM (inactive)	77.8 µM (inactive)	21.5 µM (inactive)	10.5 µM (inactive)	45.6 µM (inactive)	21.9 µM (inactive)	6.28 µM (inactive)	14.8 µM (inactive)	11 µM (inactive)	20.2 µM (inactive)	40.2 µM (inactive)	19.3 µM (inactive)	5.96 µM (inactive)	5.12 µM (inactive)	14.6 µM (inactive)	90.8 µM (inactive)	17.7 µM (inactive)	30.5 µM (inactive)	12.9 µM (inactive)
